Structures are written as SMILES. Read-outs that look alike come from different tables or passages of the source. Some results are limits rather than exact numbers.

The test system of assay [1] is Phosphorylated Ribosomal Protein S6 (RPS6). In words: THP-1 RPS6 ELISA Assay. In kind it is cell-based, Human. As to conditions: THP-1 cells, read-out: PI3Kγ_THP1_RPS6_ELISA IC50. The essentials:
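Serum-starved THP-1 cells were preincubated with a concentration range of compound for 2 h at 37 °C, then stimulated with 10 nM MCP-1 for 15 min. Phospho-RPS6 in lysates was quantified by ELISA at 450 nm. IC50 came from percent inhibition versus log inhibitor concentration.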

Assay [2] deals with PI3Kγ (p110γ) Recombinant Human Protein (Homo sapiens (Human), UniProt P48736). In words: PI3K-γ Scintillation Proximity Assay. As to conditions: read-out: PI3Kγ IC50. Format: biochemical. The essentials: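 Recombinant human p110γ assayed at room temperature in 20 mM MOPS pH 6.7, 10 mM MgCl2, 5 mM DTT, 0.03% CHAPS, 2% DMSO, with 20 μM PIP2 and 2 μM ATP plus [γ-33P]ATP. Product captured on WGA SPA beads overnight and counted; IC50 fitted from % of solvent-control activity versus log inhibitor concentration.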
A general note: Scintillation proximity formats need no separation of bound from free tracer.

Assay [3] concerns the target PI3Kδ (p110δ/p85α) Recombinant Human Protein (Homo sapiens (Human), UniProt O00329). Briefly: PI3Kδ Scintillation Proximity Assay. In kind it is biochemical. The essentials: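 Kinase reaction run at room temperature in 20 mM MOPS pH 6.7, 10 mM MgCl2, 5 mM DTT, 0.03% CHAPS with 20 μM PIP2, 2 μM ATP plus [γ-33P]ATP, 3.4 nM enzyme, 2% DMSO; 120 min. Quenched with WGA SPA beads/EDTA, counted by scintillation; IC50 from % solvent-control activity vs log concentration.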

Chain of PI3Kδ (p110δ/p85α) Recombinant Human Protein (O00329 whole entry): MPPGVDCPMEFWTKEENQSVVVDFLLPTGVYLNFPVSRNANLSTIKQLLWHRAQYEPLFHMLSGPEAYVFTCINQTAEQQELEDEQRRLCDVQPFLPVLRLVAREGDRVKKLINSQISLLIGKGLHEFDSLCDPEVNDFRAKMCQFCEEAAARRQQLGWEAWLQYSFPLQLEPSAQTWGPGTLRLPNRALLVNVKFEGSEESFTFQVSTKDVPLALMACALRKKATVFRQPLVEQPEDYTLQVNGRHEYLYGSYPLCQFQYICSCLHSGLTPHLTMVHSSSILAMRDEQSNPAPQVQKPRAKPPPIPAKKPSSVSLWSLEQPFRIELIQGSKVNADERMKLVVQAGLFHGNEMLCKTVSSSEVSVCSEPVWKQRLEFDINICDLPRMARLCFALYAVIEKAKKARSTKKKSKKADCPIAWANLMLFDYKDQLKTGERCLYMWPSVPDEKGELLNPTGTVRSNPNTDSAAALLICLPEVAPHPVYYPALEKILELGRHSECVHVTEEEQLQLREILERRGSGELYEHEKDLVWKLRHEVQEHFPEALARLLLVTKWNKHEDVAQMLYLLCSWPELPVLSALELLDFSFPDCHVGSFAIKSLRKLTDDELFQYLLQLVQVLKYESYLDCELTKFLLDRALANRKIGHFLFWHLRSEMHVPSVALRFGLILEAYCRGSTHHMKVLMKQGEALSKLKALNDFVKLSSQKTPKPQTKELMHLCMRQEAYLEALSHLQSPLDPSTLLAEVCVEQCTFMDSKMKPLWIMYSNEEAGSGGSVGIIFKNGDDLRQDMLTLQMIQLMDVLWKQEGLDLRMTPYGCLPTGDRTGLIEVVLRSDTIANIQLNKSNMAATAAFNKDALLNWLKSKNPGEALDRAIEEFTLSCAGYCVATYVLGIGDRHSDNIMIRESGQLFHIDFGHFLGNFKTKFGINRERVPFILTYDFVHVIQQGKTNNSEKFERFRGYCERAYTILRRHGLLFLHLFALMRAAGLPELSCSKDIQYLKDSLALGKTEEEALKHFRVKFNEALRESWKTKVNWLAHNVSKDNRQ
Chain of PI3Kδ (p110δ/p85α) Recombinant Human Protein (P27986 whole entry partner): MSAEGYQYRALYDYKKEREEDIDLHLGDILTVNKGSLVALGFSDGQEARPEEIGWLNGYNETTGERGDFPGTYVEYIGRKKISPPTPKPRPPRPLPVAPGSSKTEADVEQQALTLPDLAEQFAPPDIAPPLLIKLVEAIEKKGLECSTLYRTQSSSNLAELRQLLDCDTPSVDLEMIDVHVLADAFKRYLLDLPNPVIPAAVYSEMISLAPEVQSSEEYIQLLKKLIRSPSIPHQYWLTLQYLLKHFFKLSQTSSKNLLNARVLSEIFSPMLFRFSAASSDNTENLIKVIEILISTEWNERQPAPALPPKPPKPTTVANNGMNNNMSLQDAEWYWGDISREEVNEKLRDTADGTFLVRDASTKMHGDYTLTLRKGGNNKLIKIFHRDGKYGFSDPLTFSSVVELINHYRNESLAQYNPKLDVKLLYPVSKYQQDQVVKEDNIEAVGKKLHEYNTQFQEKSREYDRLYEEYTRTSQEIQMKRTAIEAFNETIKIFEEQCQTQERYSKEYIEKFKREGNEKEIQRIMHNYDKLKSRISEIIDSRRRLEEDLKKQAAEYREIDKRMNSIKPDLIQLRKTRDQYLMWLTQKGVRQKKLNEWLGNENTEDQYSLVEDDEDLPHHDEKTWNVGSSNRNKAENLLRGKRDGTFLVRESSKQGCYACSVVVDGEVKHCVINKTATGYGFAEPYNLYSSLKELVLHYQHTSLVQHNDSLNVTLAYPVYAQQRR
Chain of PI3Kγ (p110γ) Recombinant Human Protein (P48736 whole entry): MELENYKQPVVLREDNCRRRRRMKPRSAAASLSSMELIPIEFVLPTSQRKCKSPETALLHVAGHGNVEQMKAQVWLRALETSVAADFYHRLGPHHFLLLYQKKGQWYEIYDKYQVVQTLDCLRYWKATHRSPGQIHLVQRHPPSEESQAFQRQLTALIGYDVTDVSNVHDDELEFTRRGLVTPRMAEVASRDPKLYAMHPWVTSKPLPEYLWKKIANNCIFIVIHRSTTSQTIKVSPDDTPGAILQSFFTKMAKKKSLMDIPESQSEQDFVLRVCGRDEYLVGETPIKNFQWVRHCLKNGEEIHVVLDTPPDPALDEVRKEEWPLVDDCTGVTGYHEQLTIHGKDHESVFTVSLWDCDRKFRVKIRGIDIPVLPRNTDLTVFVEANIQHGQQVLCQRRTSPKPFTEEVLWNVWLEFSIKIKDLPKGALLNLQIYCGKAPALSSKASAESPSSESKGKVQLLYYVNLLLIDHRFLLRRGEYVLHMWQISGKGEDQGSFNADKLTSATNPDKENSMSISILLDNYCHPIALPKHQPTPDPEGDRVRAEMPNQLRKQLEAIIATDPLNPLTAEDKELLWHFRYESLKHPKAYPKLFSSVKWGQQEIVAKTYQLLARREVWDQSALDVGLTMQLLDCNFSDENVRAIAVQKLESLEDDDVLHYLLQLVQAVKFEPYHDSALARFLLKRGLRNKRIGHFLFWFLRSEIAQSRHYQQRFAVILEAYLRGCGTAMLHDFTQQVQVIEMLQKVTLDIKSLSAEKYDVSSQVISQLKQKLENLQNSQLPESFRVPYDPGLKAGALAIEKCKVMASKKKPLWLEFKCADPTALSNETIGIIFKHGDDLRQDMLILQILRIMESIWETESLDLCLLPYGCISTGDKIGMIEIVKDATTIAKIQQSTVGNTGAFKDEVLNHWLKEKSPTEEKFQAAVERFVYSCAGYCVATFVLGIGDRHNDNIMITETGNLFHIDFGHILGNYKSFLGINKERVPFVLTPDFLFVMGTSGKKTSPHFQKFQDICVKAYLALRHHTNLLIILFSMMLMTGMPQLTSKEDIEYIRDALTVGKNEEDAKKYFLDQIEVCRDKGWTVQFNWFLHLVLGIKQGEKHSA

Usually IC50 stands for the midpoint of a concentration-inhibition curve. Consider `Cc1ccc(S(=O)(=O)NC2CC(CO)(CO)C2)cc1-c1cnc2c(N)ncnn12` [Example 126, 3-(4-aminoimidazo[2,1-f][1,2,4]triazin-7-yl)-N-[3,3-bis(hydroxymethyl)cyclobutyl]-4-methylbenzenesulfonamide], for which the IC50 in assay [1] (Homo sapiens) was 100 to 500 nM; in assay [2], below 100 nM; in assay [3], 500 to 2000 nM.

Turning to `Cc1ccc(S(=O)(=O)N[C@]2(C)CC[C@@H](O)CC2)cc1-c1cnc2c(N)ncnn12` [Example 127, 3-(4-aminoimidazo[2,1-f][1,2,4]triazin-7-yl)-N-(trans-4-hydroxy-1-methylcyclohexyl)-4-methylbenzenesulfonamide], the IC50 is 100 to 500 nM in assay [1], below 100 nM in assay [2] and 500 to 2000 nM in assay [3].

`Cc1ccc(S(=O)(=O)N2CC(CO)C2)cc1-c1cnc2c(N)ncnn12` [Example 128, (1-((3-(4-aminoimidazo[2,1-f][1,2,4]triazin-7-yl)-4-methylphenyl)sulfonyl)azetidin-3-yl)methanol]: the IC50 was 100 to 500 nM in assay [1] (Homo sapiens), below 100 nM in assay [2] and 100 to 500 nM in assay [3].

On to `Cc1ccc(S(=O)(=O)NCCN2CCS(=O)(=O)CC2)cc1-c1cnc2c(N)ncnn12` [Example 129, 3-(4-aminoimidazo[2,1-f][1,2,4]triazin-7-yl)-N-(2-(1,1-dioxidothiomorpholino)ethyl)-4-methylbenzenesulfonamide], for which the half-inhibitory concentration (IC50) is below 100 nM in assay [1] (Homo sapiens), below 100 nM in assay [2] and 100 to 500 nM in assay [3].

As for `Cc1ccc(S(=O)(=O)NCC2CCC(F)(F)CC2)cc1-c1cnc2c(N)ncnn12` [Example 130, 3-(4-aminoimidazo[2,1-f][1,2,4]triazin-7-yl)-N-((4,4-difluorocyclohexyl)methyl)-4-methylbenzenesulfonamide], the IC50 in assay [1] (Homo sapiens) was 500 to 1000 nM; in assay [2] it was below 100 nM; in assay [3], 500 to 2000 nM.

On to `Cc1ccc(S(=O)(=O)N2CC(F)C2)cc1-c1cnc2c(N)ncnn12` [Example 131, 7-(5-((3-fluoroazetidin-1-yl)sulfonyl)-2-methylphenyl)imidazo[2,1-f][1,2,4]triazin-4-amine], for which the 50% inhibitory concentration (IC50) was above 1000 nM in assay [1] (Homo sapiens), 100 to 500 nM in assay [2] and 500 to 2000 nM in assay [3].

As for `Cc1ccc(S(=O)(=O)NC2CC(F)(F)C2)cc1-c1cnc2c(N)ncnn12` [Example 132, 3-(4-aminoimidazo[2,1-f][1,2,4]triazin-7-yl)-N-(3,3-difluorocyclobutyl)-4-methylbenzenesulfonamide], the figures for the IC50 in assay [1] (Homo sapiens), in assay [2] and in assay [3] were 100 to 500 nM, below 100 nM and 100 to 500 nM, respectively.

For the compound `Cc1ccc(S(=O)(=O)N[C@H]2CC[C@@](C)(O)CC2)cc1-c1cnc2c(N)ncnn12` [Example 133, 3-(4-aminoimidazo[2,1-f][1,2,4]triazin-7-yl)-N-((1S,4S)-4-hydroxy-4-methylcyclohexyl)-4-methylbenzenesulfonamide], the half-maximal inhibitory concentration (IC50) in assay [1] was above 1000 nM; in assay [2], below 100 nM; in assay [3] it was 500 to 2000 nM.

For the compound `Cc1ccc(S(=O)(=O)NCC2(F)CCOCC2)cc1-c1cnc2c(N)ncnn12` [Example 134, 3-(4-aminoimidazo[2,1-f][1,2,4]triazin-7-yl)-N-((4-fluorotetrahydro-2H-pyran-4-yl)methyl)-4-methylbenzenesulfonamide], the half-inhibitory concentration (IC50) in assay [1] (Homo sapiens) was 100 to 500 nM; in assay [2] it was below 100 nM; in assay [3] it was 500 to 2000 nM.

On to `Cc1ccc(S(=O)(=O)NCC2CCS(=O)(=O)C2)cc1-c1cnc2c(N)ncnn12` (stereo not drawn) [Example 135, 3-(4-aminoimidazo[2,1-f][1,2,4]triazin-7-yl)-N-((1,1-dioxidotetrahydrothiophen-3-yl)methyl)-4-methylbenzenesulfonamide], for which the IC50 in assay [1] (Homo sapiens) was above 1000 nM; in assay [2], below 100 nM; in assay [3], 100 to 500 nM.

Source of the values: patent publication US10479795B2 (Incyte Corporation, priority 2016, dated 2019).
